Patent US3954975A, “Salts of ACTH-peptides and processes for their manufacture” (Ciba-Geigy Corporation, priority 1972, dated 1976)
Where a name gives a salt, the structure may show the parent alone. Square brackets hold non-standard residues; d marks the D form. Peptide text beside a SMILES is read from it.

Assay: solubility of the fatty acid salt in water
Type: physicochemical
Conditions: for solubility in water: 24°C
Description: 200 mg of D-Ser^1 -Lys^17,18 -β^1-18 -corticotropin-Lys^18 -amide hexaacetate hydrate are dissolved in 24 ml of ethanol and 1.6 ml of water, and thereafter a solution of 88 mg of lauric acid in 10 ml of ethanol is added. The mixture is evaporated to dryness, the residue is dried overnight in vacuo over sodium hydroxide and is then dissolved in 25 ml of tert. butanol and 5 ml of water whilst warming, the solution is filtered and the filtrate is lyophilized. The residue is again dried in vacuo over sodium hydroxide. 265 mg of lauric acid salt are obtained as a light powder. The solubility of the product in water at 24°C is less than 0.1% (acetic acid salt > 10%).

Row | solubility in water (in words) | Compound | further results
1 | sparingly soluble in water | CSCC[C@H](NC(=O)[C@H](CO)NC(=O)[C@H](Cc1ccc(O)cc1)NC(=O)[C@H](N)CO)C(=O)N[C@@H](CCC(=O)O)C(=O)N[C@@H](Cc1c[nH]cn1)C(=O)N[C@@H](Cc1ccccc1)C(=O)N[C@@H](CCCNC(=N)N)C(=O)N[C@@H](Cc1c[nH]c2ccccc12)C(=O)NCC(=O)N[C@@H](CCCCN)C(=O)N1CCC[C@H]1C(=O)N[C@H](C(=O)NCC(=O)N[C@@H](CCCCN)C(=O)N[C@@H](CCCCN)C(=O)N[C@@H](CCCCN)C(=O)N[C@@H](CCCCN)C(=O)N1CCC[C@H]1C(=O)O)C(C)C [Example 6, D-Ser^1 -Lys^17,18 -β^1-19-corticotropin] | –
2 | practically insoluble in water | CSCC[C@H](NC(=O)CNC(=O)[C@H](Cc1ccc(O)cc1)NC(=O)[C@H](N)CO)C(=O)N[C@@H](CCC(=O)O)C(=O)N[C@@H](Cc1c[nH]cn1)C(=O)N[C@@H](Cc1ccccc1)C(=O)N[C@@H](CCCNC(=N)N)C(=O)N[C@@H](Cc1c[nH]c2ccccc12)C(=O)NCC(=O)N[C@@H](CCCCN)C(=O)N1CCC[C@H]1C(=O)N[C@H](C(=O)NCC(=O)N[C@@H](CCCCN)C(=O)N[C@@H](CCCCN)C(=O)N[C@@H](CCCCN)C(=O)N[C@@H](CCCCN)C(N)=O)C(C)C [Example 8, D-Ser^1 -Gly^3 -Lys^17,18 -β^1-18-corticotropin-Lys^18-amide] (H-[dS]YGMEHFRWGKPVGKKKK-NH2) | –
3 | water-insoluble | CSCC[C@H](NC(=O)[C@H](CO)NC(=O)[C@H](Cc1ccc(O)cc1)NC(=O)[C@H](N)CO)C(=O)N[C@@H](CCC(=O)O)C(=O)N[C@@H](Cc1c[nH]cn1)C(=O)N[C@@H](Cc1ccccc1)C(=O)N[C@@H](CCCNC(=N)N)C(=O)N[C@@H](Cc1c[nH]c2ccccc12)C(=O)NCC(=O)N[C@@H](CCCCN)C(=O)N1CCC[C@H]1C(=O)N[C@H](C(=O)NCC(=O)N[C@@H](CCCCN)C(=O)N[C@@H](CCCCN)C(=O)N[C@@H](CCCCN)C(=O)N[C@@H](CCCCN)C(N)=O)C(C)C [Example 4, D-Ser^1 -Lys^17,18 -β^1-18-corticotropin-Lys^18-amide] | –
4 | – | CSCC[C@H](NC(=O)[C@H](CO)NC(=O)[C@H](Cc1ccc(O)cc1)NC(=O)[C@H](N)CO)C(=O)N[C@@H](CCC(=O)O)C(=O)N[C@@H](Cc1c[nH]cn1)C(=O)N[C@@H](Cc1ccccc1)C(=O)N[C@@H](CCCNC(=N)N)C(=O)N[C@@H](Cc1c[nH]c2ccccc12)C(=O)NCC(=O)N[C@@H](CCCCN)C(=O)N1CCC[C@H]1C(=O)N[C@H](C(=O)NCC(=O)N[C@@H](CCCCN)C(=O)N[C@@H](CCCCN)C(=O)N[C@@H](CCCCN)C(=O)N[C@@H](CCCCN)C(N)=O)C(C)C [acetic acid salt, D-Ser^1 -Lys^17,18 -β^1-18-corticotropin-Lys^18-amide hexaacetate hydrate, reference compound] | solubility in water (hydrate): > 10%
5 | – | CSCC[C@H](NC(=O)[C@H](CO)NC(=O)[C@H](Cc1ccc(O)cc1)NC(=O)[C@H](N)CO)C(=O)N[C@@H](CCC(=O)O)C(=O)N[C@@H](Cc1c[nH]cn1)C(=O)N[C@@H](Cc1ccccc1)C(=O)N[C@@H](CCCNC(=N)N)C(=O)N[C@@H](Cc1c[nH]c2ccccc12)C(=O)NCC(=O)N[C@@H](CCCCN)C(=O)N1CCC[C@H]1C(=O)N[C@H](C(=O)NCC(=O)N[C@@H](CCCCN)C(=O)N[C@@H](CCCCN)C(=O)N[C@@H](CCCCN)C(=O)N[C@@H](CCCCN)C(N)=O)C(C)C [Example 1, D-Ser^1 -Lys^17,18 -β^1-18-corticotropin-Lys^18-amide] | solubility in water: less than 0.1%
6 | cannot be dissolved in water | D-Ser^1 -Gly^3 -Lys^17,18 -corticotropin-Lys^18 -amide [Example 9] | –
